Reference: patent publication US8822451B2, “Modulators of ATP-binding cassette transporters” (Vertex Pharmaceuticals Incorporated, priority 2005, dated 2014)

Target: T1, […]F508-CFTR (Homo sapiens, UniProt P13569, DEL508-508)
T1 construct: expressed in transfected cells
Assay: Assay results of Table 3: ΔF508-CFTR modulation, membrane potential optical assay (assay format not stated)
Type: cell-based
Conditions: NIH3T3 mouse fibroblasts stably expressing […]F508-CFTR (optical assays); for Efficacy: efficacy range; for EC50: potency range
Text: A. Membrane Potential Optical Methods for Assaying […]F508-CFTR Modulation Properties of Compounds
The optical membrane potential assay utilized voltage-sensitive FRET sensors described by Gonzalez and Tsien (See, Gonzalez, J. E. and R. Y. Tsien (1995) “Voltage sensing by fluorescence resonance energy transfer in single cells” Biophys J 69(4): 1272-80, and Gonzalez, J. E. and R. Y. Tsien (1997) “Improved indicators of cell membrane potential that use fluorescence resonance energy transfer” Chem Biol 4(4): 269-77) in combination with instrumentation for measuring fluorescence changes such as the Voltage/Ion Probe Reader (VIPR) (See, Gonzalez, J. E., K. Oades, et al. (1999) “Cell-based assays and instrumentation for screening ion-channel targets” Drug Discov Today 4(9): 431-439).
These voltage sensitive assays are based on the change in fluorescence resonant energy transfer (FRET) between the membrane-soluble, voltage-sensitive dye, DiSBAC2(3), and a fluorescent phospholipid, CC2-DMPE, which is attached to the outer leaflet of the plasma membrane and acts as a FRET donor. Changes in membrane potential (Vm) cause the negatively charged DiSBAC2(3) to redistribute across the plasma membrane and the amount of energy transfer from CC2-DMPE changes accordingly. The changes in fluorescence emission were monitored using VIPR™ II, which is an integrated liquid handler and fluorescent detector designed to conduct cell-based screens in 96- or 384-well microtiter plates.
To identify small molecules that correct the trafficking defect associated with ΔF508-CFTR; a single-addition HTS assay format was developed. The cells were incubated in serum-free medium for 16 hrs at 37° C. in the presence or absence (negative control) of test compound. As a positive control, cells plated in 384-well plates were incubated for 16 hrs at 27° C. to “temperature-correct” […]F508-CFTR. The cells were subsequently rinsed 3× with Krebs Ringers solution and loaded with the voltage-sensitive dyes. To activate […]F508-CFTR, 10 µM forskolin and the CFTR potentiator, genistein (20 µM), were added along with Cl^−-free medium to each well. The addition of Cl^−-free medium promoted Cl^− efflux in response to […]F508-CFTR activation and the resulting membrane depolarization was optically monitored using the FRET-based voltage-sensor dyes.
To identify potentiators of […]F508-CFTR, a double-addition HTS assay format was developed. During the first addition, a Cl^−-free medium with or without test compound was added to each well. After 22 sec, a second addition of Cl^−-free medium containing 2-10 µM forskolin was added to activate […]F508-CFTR. The extracellular Cl^− concentration following both additions was 28 mM, which promoted Cl^− efflux in response to […]F508-CFTR activation and the resulting membrane depolarization was optically monitored using the FRET-based voltage-sensor dyes.
Bath Solution #1: (in mM) NaCl 160, KCl 4.5, CaCl2 2, MgCl2 1, HEPES 10, pH 7.4 with NaOH.
Chloride-free bath solution: Chloride salts in Bath Solution #1 are substituted with gluconate salts.
CC2-DMPE: Prepared as a 10 mM stock solution in DMSO and stored at −20° C.
DiSBAC2(3): Prepared as a 10 mM stock in DMSO and stored at −20° C.
NIH3T3 mouse fibroblasts stably expressing […]F508-CFTR are used for optical measurements of membrane potential. The cells are maintained at 37° C. in 5% CO2 and 90% humidity in Dulbecco's modified Eagle's medium supplemented with 2 mM glutamine, 10% fetal bovine serum, 1× NEAA, […]-ME, 1× pen/strep, and 25 mM HEPES in 175 cm^2 culture flasks. For all optical assays, the cells were seeded at 30,000/well in 384-well matrigel-coated plates and cultured for 2 hrs at 37° C. before culturing at 27° C. for 24 hrs for the potentiator assay. For the correction assays, the cells are cultured at 27° C. or 37° C. with and without compounds for 16-24 hoursB.

T1 sequence (P13569 with tags, fused parts or gaps DEL508-508): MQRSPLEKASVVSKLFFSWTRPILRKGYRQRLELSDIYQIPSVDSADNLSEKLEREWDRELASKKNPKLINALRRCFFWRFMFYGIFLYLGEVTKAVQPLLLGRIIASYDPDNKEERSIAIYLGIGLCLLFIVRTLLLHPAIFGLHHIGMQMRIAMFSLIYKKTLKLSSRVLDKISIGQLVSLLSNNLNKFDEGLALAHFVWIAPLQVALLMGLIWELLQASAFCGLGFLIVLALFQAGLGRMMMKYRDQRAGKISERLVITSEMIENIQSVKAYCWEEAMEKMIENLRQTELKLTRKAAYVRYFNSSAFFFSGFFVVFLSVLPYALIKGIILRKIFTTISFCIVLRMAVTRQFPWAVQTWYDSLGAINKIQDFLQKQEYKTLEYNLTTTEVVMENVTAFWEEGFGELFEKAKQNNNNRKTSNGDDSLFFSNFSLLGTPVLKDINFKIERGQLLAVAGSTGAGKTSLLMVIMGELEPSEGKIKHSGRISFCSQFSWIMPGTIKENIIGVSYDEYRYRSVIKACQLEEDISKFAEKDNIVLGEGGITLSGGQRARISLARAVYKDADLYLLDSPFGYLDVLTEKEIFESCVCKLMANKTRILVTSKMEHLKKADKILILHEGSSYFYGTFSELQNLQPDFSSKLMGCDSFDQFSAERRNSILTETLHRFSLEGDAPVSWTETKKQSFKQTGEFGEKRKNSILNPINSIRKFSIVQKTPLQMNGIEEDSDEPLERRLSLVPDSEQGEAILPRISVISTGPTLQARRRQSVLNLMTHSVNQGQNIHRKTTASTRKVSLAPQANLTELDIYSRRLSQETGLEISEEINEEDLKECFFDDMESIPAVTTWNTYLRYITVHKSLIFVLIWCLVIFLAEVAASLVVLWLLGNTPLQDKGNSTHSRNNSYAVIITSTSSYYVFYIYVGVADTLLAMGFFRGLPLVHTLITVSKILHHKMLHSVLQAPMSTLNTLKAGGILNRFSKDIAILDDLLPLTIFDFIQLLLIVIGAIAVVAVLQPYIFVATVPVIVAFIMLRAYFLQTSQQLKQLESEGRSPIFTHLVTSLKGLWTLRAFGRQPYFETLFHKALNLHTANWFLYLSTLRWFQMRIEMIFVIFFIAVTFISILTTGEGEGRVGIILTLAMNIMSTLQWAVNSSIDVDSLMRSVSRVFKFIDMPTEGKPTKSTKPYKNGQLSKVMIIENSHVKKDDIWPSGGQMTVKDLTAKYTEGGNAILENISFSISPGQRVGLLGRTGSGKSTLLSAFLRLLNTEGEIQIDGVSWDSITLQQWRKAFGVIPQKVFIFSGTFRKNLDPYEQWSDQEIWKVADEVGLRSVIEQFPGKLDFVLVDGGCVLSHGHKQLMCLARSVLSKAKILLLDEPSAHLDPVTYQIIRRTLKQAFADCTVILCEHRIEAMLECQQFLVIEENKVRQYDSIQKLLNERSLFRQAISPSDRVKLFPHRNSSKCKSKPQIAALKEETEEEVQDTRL

| Structure (SMILES) | Efficacy | EC50 |
| --- | --- | --- |
| CN(C)C(=O)c1cc(-c2ccccc2)nc(N2CCCCCC2)n1 [Compound 1] | ++ (++ corresponds to Efficacy between 100 and 50) | > 5 µM |
| CNC(=O)c1cc(-c2ccccc2)nc(NCc2ccco2)n1 [Compound 2] | ++ (++ corresponds to Efficacy between 100 and 50) | > 5 µM |
| NC(=O)c1cc(-c2ccccc2)nc(N2CC=C(c3ccc(Cl)cc3)CC2)n1 [Compound 3] | ++ (++ corresponds to Efficacy between 100 and 50) | > 5 µM |
| CCN(CCO)c1nc(C(N)=O)cc(-c2ccccc2)n1 [Compound 4] | +++ (+++ corresponds to Efficacy greater than 100) | > 5 µM |
| CCOc1ccccc1-c1cc(C(N)=O)nc(N(CC)CC)n1 [Compound 5] | +++ (+++ corresponds to Efficacy greater than 100) | < 1 µM |
| NC(=O)c1cc(-c2cccc(F)c2F)nc(N2CCCCC2)n1 [Compound 6] | ++ (++ corresponds to Efficacy between 100 and 50) | 1 to 5 µM |
| CCN(C)c1nc(C(N)=O)cc(-c2ccccc2)n1 [Compound 7] | +++ (+++ corresponds to Efficacy greater than 100) | 1 to 5 µM |
| COc1ccc(OC)c(-c2cc(C(N)=O)nc(N3CCCCC3)n2)c1 [Compound 8] | ++ (++ corresponds to Efficacy between 100 and 50) | 1 to 5 µM |
| CN(C)c1nc(C(N)=O)cc(-c2ccccc2)n1 [Compound 9] | ++ (++ corresponds to Efficacy between 100 and 50) | > 5 µM |
| CCN(CC)c1nc(C(N)=O)cc(-c2ccc(C(F)(F)F)cc2)n1 [Compound 10] | ++ (++ corresponds to Efficacy between 100 and 50) | > 5 µM |
| Cc1cccc(-c2cc(C(N)=O)nc(N3CCCCC3)n2)c1C [Compound 11] | ++ (++ corresponds to Efficacy between 100 and 50) | 1 to 5 µM |
| CCN(CC)c1nc(C(N)=O)cc(-c2cc(Cl)ccc2OC)n1 [Compound 12] | ++ (++ corresponds to Efficacy between 100 and 50) | < 1 µM |
| CCCCN(CC#N)c1nc(C(N)=O)cc(-c2ccccc2)n1 [Compound 13] | ++ (++ corresponds to Efficacy between 100 and 50) | > 5 µM |
| C=CCN(C)c1nc(C(N)=O)cc(-c2ccccc2)n1 [Compound 14] | +++ (+++ corresponds to Efficacy greater than 100) | 1 to 5 µM |
| COc1cccc(-c2cc(C(N)=O)nc(N3CC=CCC3)n2)c1 [Compound 15] | ++ (++ corresponds to Efficacy between 100 and 50) | > 5 µM |
| NC(=O)c1cc(-c2ccccc2)nc(N2CCCCC2)n1 [Compound 16] | ++ (++ corresponds to Efficacy between 100 and 50) | 1 to 5 µM |
| CC(C)OC(=O)c1cccc(-c2cc(C(N)=O)nc(N3CCCCC3)n2)c1 [Compound 17] | ++ (++ corresponds to Efficacy between 100 and 50) | 1 to 5 µM |
| CN(Cc1cccnc1)c1nc(C(N)=O)cc(-c2ccccc2)n1 [Compound 18] | ++ (++ corresponds to Efficacy between 100 and 50) | > 5 µM |
| CCCCN(CCO)c1nc(C(N)=O)cc(-c2ccccc2)n1 [Compound 19] | ++ (++ corresponds to Efficacy between 100 and 50) | 1 to 5 µM |
| CCOc1ccc(-c2cc(C(N)=O)nc(N(CC)CC)n2)cc1 [Compound 20] | ++ (++ corresponds to Efficacy between 100 and 50) | < 1 µM |
| CCN(CC)c1nc(C(N)=O)cc(-c2ccc(C)s2)n1 [Compound 21] | +++ (+++ corresponds to Efficacy greater than 100) | 1 to 5 µM |
| COc1ccc(-c2cc(C(N)=O)nc(N3CCCCC3)n2)cn1 [Compound 22] | ++ (++ corresponds to Efficacy between 100 and 50) | > 5 µM |

| Structure (SMILES) | Efficacy | EC50 |
| --- | --- | --- |
| CCCN(CCC)c1nc(C(N)=O)cc(-c2ccccc2)n1 [Compound 23] | ++ (++ corresponds to Efficacy between 100 and 50) | 1 to 5 µM |
| CCN(CC)c1nc(C(N)=O)cc(-c2ccccc2Oc2ccccc2)n1 [Compound 24] | ++ (++ corresponds to Efficacy between 100 and 50) | < 1 µM |
| NC(=O)c1cc(-c2ccoc2)nc(N2CCCCC2)n1 [Compound 25] | + (+ corresponds to Efficacy less than 50) | > 5 µM |
| NC(=O)c1cc(-c2ccccc2)nc(N2CCCC2)n1 [Compound 26] | ++ (++ corresponds to Efficacy between 100 and 50) | 1 to 5 µM |
| NC(=O)c1cc(-c2ccccc2)nc(NCC2CC2)n1 [Compound 27] | ++ (++ corresponds to Efficacy between 100 and 50) | > 5 µM |
| NC(=O)c1cc(-c2ccccc2)nc(N2CCC(C(=O)c3ccc(Cl)cc3)CC2)n1 [Compound 28] | ++ (++ corresponds to Efficacy between 100 and 50) | > 5 µM |
| CCN(CC)c1nc(C(N)=O)cc(-c2ccc(OC(F)(F)F)cc2)n1 [Compound 29] | ++ (++ corresponds to Efficacy between 100 and 50) | < 1 µM |
| CCCNc1nc(C(N)=O)cc(-c2ccccc2)n1 [Compound 30] | ++ (++ corresponds to Efficacy between 100 and 50) | > 5 µM |
| COc1ccc(-c2cc(C(N)=O)nc(N(C)C)n2)cc1 [Compound 31] | + (+ corresponds to Efficacy less than 50) | > 5 µM |
| Cc1cccc(-c2cc(C(N)=O)nc(N3CCCCC3)n2)c1 [Compound 32] | ++ (++ corresponds to Efficacy between 100 and 50) | > 5 µM |
| NC(=O)c1cc(-c2ccccc2)nc(N2CCSCC2)n1 [Compound 33] | +++ (+++ corresponds to Efficacy greater than 100) | 1 to 5 µM |
| CCCN(CC)c1nc(C(N)=O)cc(-c2ccccc2)n1 [Compound 34] | +++ (+++ corresponds to Efficacy greater than 100) | 1 to 5 µM |
| CCN(CC)c1nc(C(N)=O)cc(-c2cccc(C(=O)OC)c2)n1 [Compound 35] | +++ (+++ corresponds to Efficacy greater than 100) | < 1 µM |
| CNC(=O)c1cc(-c2ccccc2)nc(N2CCCCCC2)n1 [Compound 36] | + (+ corresponds to Efficacy less than 50) | 1 to 5 µM |
| NC(=O)c1cc(-c2ccccc2)nc(N2CCC(Cc3ccccc3)CC2)n1 [Compound 37] | ++ (++ corresponds to Efficacy between 100 and 50) | > 5 µM |
| CN(CCc1ccccc1)c1nc(C(N)=O)cc(-c2ccccc2)n1 [Compound 38] | +++ (+++ corresponds to Efficacy greater than 100) | 1 to 5 µM |
| CCCN(CC1CC1)c1nc(C(N)=O)cc(-c2ccccc2OC)n1 [Compound 39] | +++ (+++ corresponds to Efficacy greater than 100) | > 5 µM |
| Cc1ccc(-c2cc(C(N)=O)nc(N3CCCCC3)n2)cc1C [Compound 40] | ++ (++ corresponds to Efficacy between 100 and 50) | > 5 µM |
| CNC(=O)c1cc(-c2ccccc2)nc(NCC2CC2)n1 [Compound 41] | + (+ corresponds to Efficacy less than 50) | > 5 µM |
| NC(=O)c1cc(-c2ccccc2)nc(N2CCC(O)(c3ccc(Cl)cc3)CC2)n1 [Compound 42] | + (+ corresponds to Efficacy less than 50) | > 5 µM |
| NC(=O)c1cc(-c2ccccc2)nc(N2CCCC(CO)C2)n1 (stereo not shown) [Compound 43] | + (+ corresponds to Efficacy less than 50) | > 5 µM |
| NC(=O)c1cc(-c2ccccc2)nc(N2CCC3(CC2)OCCO3)n1 [Compound 44] | ++ (++ corresponds to Efficacy between 100 and 50) | > 5 µM |
